Data set [1] relates to human epithelial HeLa cells. Briefly: HeLa cytotoxicity assay (CellTiter-Glo). The format is cell-based. The following applies: pCC50. As for the experimental part: (§1) Compounds of the present invention were tested via high-throughput cellular assays utilizing detection of kynurenine via mass spectrometry and cytotoxicity as end-points. For the mass spectrometry and cytotoxicity assays, human epithelial HeLa cells (CCL-2; ATCC®, Manassas, Va.) were stimulated with human interferon-γ (IFN-γ) (Sigma-Aldrich Corporation, St. Louis, Mo.) to induce the expression of indoleamine 2, 3-dioxygenase (IDO1). Compounds with IDO1 inhibitory properties decreased the amount of kynurenine produced by the cells via the tryptophan catabolic pathway. Cellular toxicity due to the effect of compound treatment was measured using CellTiter-Glo® reagent (CTG) (Promega Corporation, Madison, Wis.), which is based on luminescent detection of ATP, an indicator of metabolically active cells.
(§2) In preparation for the assays, test compounds were serially diluted 3-fold in DMSO from a typical top concentration of 1 mM or 5 mM and plated at 0.5 μL in 384-well, polystyrene, clear bottom, tissue culture treated plates with lids (Greiner Bio-One, Kremsmünster, Austria) to generate 11-point dose response curves. Low control wells (0% kynurenine or 100% cytotoxicity) contained either 0.5 μL of DMSO in the presence of unstimulated (−IFN-γ) HeLa cells for the mass spectrometry assay or 0.5 μL of DMSO in the absence of cells for the cytotoxicity assay, and high control wells (100% kynurenine or 0% cytotoxicity) contained 0.5 μL of DMSO in the presence of stimulated (+IFN-γ) HeLa cells for both the mass spectrometry and cytotoxicity assays.
(§3) Frozen stocks of HeLa cells were washed and recovered in DMEM high glucose medium with HEPES (Thermo Fisher Scientific, Inc., Waltham, Mass.) supplemented with 10% v/v certified fetal bovine serum (FBS) (Thermo Fisher Scientific, Inc., Waltham, Mass.), and 1× penicillin-streptomycin antibiotic solution (Thermo Fisher Scientific, Inc., Waltham, Mass.). The cells were diluted to 100,000 cells/mL in the supplemented DMEM medium. 50 μL of either the cell suspension, for the mass spectrometry assay, or medium alone, for the cytotoxicity assay, were added to the low control wells, on the previously prepared 384-well compound plates, resulting in 5,000 cells/well or 0 cells/well respectively. IFN-γ was added to the remaining cell suspension at a final concentration of 10 nM, and 50 μL of the stimulated cells were added to all remaining wells on the 384-well compound plates. The plates, with lids, were then placed in a 37° C., 5% CO2 humidified incubator for 2 days.
(§4) Following incubation, the 384-well plates were removed from the incubator and allowed to equilibrate to room temperature for 30 minutes. For the cytotoxicity assay, CellTiter-Glo® was prepared according to the manufacturer's instructions, and 10 μL were added to each plate well. After a twenty minute incubation at room temperature, luminescence was read on an EnVision® Multilabel Reader (PerkinElmer Inc., Waltham, Mass.). For the mass spectrometry assay, 10 μL of supernatant from each well of the compound-treated plates were added to 40 μL of acetonitrile, containing 10 μM of an internal standard for normalization, in 384-well, polypropylene, V-bottom plates (Greiner Bio-One, Kremsmünster, Austria) to extract the organic analytes. Following centrifugation at 2000 rpm for 10 minutes, 10 μL from each well of the acetonitrile extraction plates were added to 90 μL of sterile, distilled H2O in 384-well, polypropylene, V-bottom plates for analysis of kynurenine and the internal standard on the RapidFire 300 (Agilent Technologies, Santa Clara, Calif.) and 4000 QTRAP MS (SCIEX, Framingham, Mass.). MS data were integrated using Agilent Technologies' RapidFire Integrator software, and data were normalized for analysis as a ratio of kynurenine to the internal standard. […]
(Cellular ATP, detected with luciferase, serves as a proxy for viable cell number.)

In data set [2] the target is indoleamine 2, 3-dioxygenase (IDO1) (Homo sapiens, UniProt P14902). Briefly: IDO1 HeLa RapidFire MS assay (kynurenine detection by mass spectrometry). Type of data set: cell-based. Set-up: to induce the expression of indoleamine 2, 3-dioxygenase (IDO1). The following applies: HeLa cells, pIC50, read-out: IDO1_HELA_PXC50 (converted). The method, then:
IDO1 HeLa RapidFire MS Assay
as §1, §2, §3, §4

The record followed here is patent publication US10899754B2, “Modulators of indoleamine 2,3-dioxygenase” (GLAXOSMITHKLINE INTELLECTUAL PROPERTY DEVELOPMENT LIMITED, priority 2016, dated 2021).

Structures are written as SMILES.

Chain of indoleamine 2, 3-dioxygenase (IDO1) (P14902 whole entry): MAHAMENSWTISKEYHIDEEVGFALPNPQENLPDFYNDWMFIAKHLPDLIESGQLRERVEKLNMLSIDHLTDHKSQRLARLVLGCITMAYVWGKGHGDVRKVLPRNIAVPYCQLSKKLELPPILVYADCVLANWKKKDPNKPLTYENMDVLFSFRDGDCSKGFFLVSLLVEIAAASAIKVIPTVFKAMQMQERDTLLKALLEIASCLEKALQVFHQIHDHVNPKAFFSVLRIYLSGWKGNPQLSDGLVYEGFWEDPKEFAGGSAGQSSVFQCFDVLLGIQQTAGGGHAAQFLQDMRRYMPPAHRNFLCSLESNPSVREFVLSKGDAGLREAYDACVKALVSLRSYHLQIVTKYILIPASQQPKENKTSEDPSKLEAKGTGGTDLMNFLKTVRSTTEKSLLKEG

Consider `Cc1nc(Cc2ccccc2)c(Nc2cc(C(C)CC(=O)O)ccc2N(CC(C)C)CC(C)C)s1` (centres unmarked) [example 146, 3-{3-[(4-benzyl-2-methyl-1,3-thiazol-5-yl)amino]-4-[bis(2-methylpropyl)amino]phenyl}butanoic acid], for which, in data set [1], the HELA_IDO1_TOX_PXC50 is below 5. Further, the IC50 in data set [2] is above 10000 nM.

The molecule `CC(C)CN(c1ccc(C(C)CC(=O)O)cc1NC1=N[C@@H](c2ccccc2)CS1)C1CCCCC1` (stereo partly drawn) [example 149, 3-{4-[cyclohexyl(2-methylpropyl)amino]-3-{[(4S)-4-phenyl-4,5-dihydro-1,3-thiazol-2-yl]amino}phenyl}butanoic acid] showed an HELA_IDO1_TOX_PXC50 in data set [1] below 5. Further, the IC50 in data set [2] is 794 nM.

Take `CC(C)CN(CC(C)C)c1ccc(C(C)CC(=O)O)cc1Nc1nc(C2CCOCC2)cs1` (centres unmarked) [example 138, 3-{4-[bis(2-methylpropyl)amino]-3-{[4-(oxan-4-yl)-1,3-thiazol-2-yl]amino}phenyl}butanoic acid]: the HELA_IDO1_TOX_PXC50 in data set [1] is given as below 4.3. In addition, the IC50 in data set [2] was 5010 nM.

In data set [1], `CC(C)CN(CC(C)C)c1ccc(C(C)CC(=O)O)cc1Nc1ncc(-c2ccccc2)o1` (centres unmarked) [example 121, 3-{4-[bis(2-methylpropyl)amino]-3-[(5-phenyl-1,3-oxazol-2-yl)amino]phenyl}butanoic acid] came in with an HELA_IDO1_TOX_PXC50 of 4.4. For the same molecule, in data set [2], the IC50 was 7940 nM.

With `CC(C)CN(CC(C)C)c1ccc(-c2ccccc2C(=O)O)cc1Nc1ccn(C)n1` [example 280, 4′-[bis(2-methylpropyl)amino]-3′-[(1-methyl-1H-pyrazol-3-yl)amino]-[1,1′-biphenyl]-2-carboxylic acid], the HELA_IDO1_TOX_PXC50 in data set [1] is reported as below 5. In addition, the IC50 in data set [2] was 2510 nM.

Consider `CC(C)CN(CC(C)C)c1ccc(C(C)CC(=O)O)cc1Nc1nnc(C2CC2)o1.O=C(O)C(F)(F)F` (centres unmarked) [example 126, 3-{4-[bis(2-methylpropyl)amino]-3-[(5-cyclopropyl-1,3,4-oxadiazol-2-yl)amino]phenyl}butanoic acid], for which the HELA_IDO1_TOX_PXC50 in data set [1] is below 4.3. Moreover, in data set [2], the IC50 was 631 nM.

`CC(C)CN(c1ccc(C(C)CC(=O)O)cc1NC1CCS(=O)(=O)CC1)C1CCCCC1` (centres unmarked) [example 134, 3-{4-[cyclohexyl(2-methylpropyl)amino]-3-[(1,1-dioxo-1λ^6-thian-4-yl)amino]phenyl}butanoic acid] had an HELA_IDO1_TOX_PXC50 in data set [1] below 5. Moreover, the IC50 in data set [2] was 3160 nM.

On to `CC(C)CN(c1ccc(C(C)CC(=O)O)cc1NC1CCN(C)C1)C1CCCCC1` (centres unmarked) [example 144, 3-{4-[cyclohexyl(2-methylpropyl)amino]-3-[(1-methylpyrrolidin-3-yl)amino]phenyl}butanoic acid], for which the HELA_IDO1_TOX_PXC50 in data set [1] is below 5. Also, the IC50 in data set [2] is 3160 nM.

As for `CC(C)CN(c1ccc([C@H](C)CC(=O)O)cc1NC1CCC(C)(C)CC1)C1CCCCC1` [example 182, (3R)-3-{4-[cyclohexyl(2-methylpropyl)amino]-3-[(4,4-dimethylcyclohexyl)ami-no]phenyl}butanoic acid], the HELA_IDO1_TOX_PXC50 in data set [1] was below 5. For the same molecule, the IC50 in data set [2] is 5010 nM.

Consider `CC(C)CN(c1ccc(-c2ccccc2C(=O)O)cc1Nc1nc(C(F)(F)F)ns1)C1CCNCC1` [example 272, 4′-[(2-methylpropyl)(piperidin-4-yl)amino]-3′-{[3-(trifluoromethyl)-1,2,4-thiadiazol-5-yl]amino}-[1,1′-biphenyl]-2-carboxylic acid], for which the HELA_IDO1_TOX_PXC50 in data set [1] is given as below 5. In data set [2], the IC50 was 5010 nM.

As for `CC(C)CN(c1ccc(-c2ccccc2C(=O)NS(C)(=O)=O)cc1Nc1nc(C(F)(F)F)ns1)C1CCCCC1` [example 282, 4′-[cyclohexyl(2-methylpropyl)amino]-N-methanesulfonyl-3-′ {[3-(trifluoromethyl)-1,2,4-thiadiazol-5-yl]amino}-[1,1′-biphenyl]-2-carboxamide], the HELA_IDO1_TOX_PXC50 in data set [1] is on record as below 5. In data set [2], the IC50 is 50.1 nM.

On to `CC(C)CN(c1ccc([C@H](C)CC(=O)O)cc1NC1CCC[C@@H](C)C1)C1CCCCC1` (stereo partly drawn) [example 184, (3R)-3-{4-[cyclohexyl(2-methylpropyl)amino]-3-{[(3R)-3-methylcyclohexyl]amino}phenyl}butanoic acid], for which the HELA_IDO1_TOX_PXC50 in data set [1] is given as below 5. For the same molecule, the IC50 in data set [2] was 501 nM.

In the case of `CC(C)CN(c1ccc(C(C)CC(=O)O)cc1NC1CCNC1)C1CCCCC1` (centres unmarked) [example 136, 3-{4-[cyclohexyl(2-methylpropyl)amino]-3-[(pyrrolidin-3-yl)amino]phenyl}butanoic acid], the HELA_IDO1_TOX_PXC50 in data set [1] is on record as 5.1. Besides, the IC50 in data set [2] was 3160 nM.

In data set [1], `CC(C)CN(CC(C)C)c1ccc(C(C)CC(=O)O)cc1Nc1nc(-c2ccncc2)cs1` (centres unmarked) [example 130, 3-{4-[bis(2-methylpropyl)amino]-3-{[4-(pyridin-4-yl)-1,3-thiazol-2-yl]amino]phenyl}butanoic acid] registered an HELA_IDO1_TOX_PXC50 below 4.3. In data set [2], the IC50 is 1580 nM.

In data set [1], `COCCN(c1ccc(-c2ccccc2C(=O)O)cc1Nc1nc2ccccc2[nH]1)C1CCCCC1` [example 285, 3′-[(1H-1,3-benzodiazol-2-yl)amino]-4′-[cyclohexyl(2-methoxyethyl)amino]-[1,1′-biphenyl]-2-carboxylic acid] displayed an HELA_IDO1_TOX_PXC50 below 5. For the same molecule, the IC50 in data set [2] was 794 nM.

`CC(=O)Nc1nnc(Nc2cc(C(C)CC(=O)O)ccc2N(CC(C)C)CC(C)C)s1` (centres unmarked) [example 187, 3-{4-[bis(2-methylpropyl)amino]-3-[(5-acetamido-1,3,4-thiadiazol-2-yl)amino]phenyl}butanoic acid] came in with an HELA_IDO1_TOX_PXC50 in data set [1] below 5. The IC50 in data set [2] was above 10000 nM.

In the case of `CC(C)CN(c1ccc(-c2ccccc2C(=O)O)cc1NCCC#N)C1CCCCC1` [example 277, 3′-[(2-cyanoethyl)amino]-4′-[cyclohexyl(2-methylpropyl)amino]-[1,1′-biphenyl]-2-carboxylic acid], the HELA_IDO1_TOX_PXC50 in data set [1] is below 5. Further, the IC50 in data set [2] is 316 nM.

In turn, `COc1nsc(Nc2cc(C(C)CC(=O)O)ccc2N(CC(C)C)CC(C)C)n1` (centres unmarked) [example 132, 3-{4-[bis(2-methylpropyl)amino]-3-[(3-methoxy-1,2,4-thiadiazol-5-yl)amino]phenyl}butanoic acid] came in with an HELA_IDO1_TOX_PXC50 in data set [1] below 4.3. The IC50 in data set [2] was 15800 nM.

Molecule `CC(C)CN(CC(C)C)c1ccc(C(C)CC(=O)O)cc1Nc1ccsc1` (centres unmarked) [example 143, 3-{4-[bis(2-methylpropyl)amino]-3-[(thiophen-3-yl)amino]phenyl}butanoic acid] yielded an HELA_IDO1_TOX_PXC50 in data set [1] below 5. Moreover, the IC50 in data set [2] is 316 nM.

`CC(C)CN(CC(C)C)c1ccc(C(C)CC(=O)O)cc1Nc1nnc(CC(N)=O)s1` (centres unmarked) [example 195, 3-{4-[bis(2-methylpropyl)amino]-3-{[5-(carbamoylmethyl)-1,3,4-thiadiazol-2-yl]amino}phenyl}butanoic acid] returned an HELA_IDO1_TOX_PXC50 in data set [1] below 5. The IC50 in data set [2] was 3160 nM.

In the case of `Cc1nnc(Nc2cc(C(C)CC(=O)O)ccc2N(CC(C)C)CC(C)C)o1.O=C(O)C(F)(F)F` (centres unmarked) [example 125, 3-{4-[bis(2-methylpropyl)amino]-3-[(5-methyl-1,3,4-oxadiazol-2-yl)amino]phenyl}butanoic acid], in data set [1], the HELA_IDO1_TOX_PXC50 was below 4.3. The IC50 in data set [2] was 1260 nM.

In turn, `CC(C)CN(c1ccc(C(C)CC(=O)O)cc1NC1=N[C@H](c2ccccc2)CS1)C1CCCCC1` (stereo partly drawn) [example 148, 3-{4-[cyclohexyl(2-methypropyl)amino]-3-{[(4R)-4-phenyl-4,5-dihydro-1,3-thiazol-2-yl]amino}phenyl}butanoic acid] had an HELA_IDO1_TOX_PXC50 in data set [1] below 5. Moreover, the IC50 in data set [2] was 631 nM.
